Where two headings read alike, the source gives them in different places.
Tests used:
Format in all cases: cell-based, human
MDA-MB-231 cells = assay: Cell proliferation experiment, MDA-MB-231; details: read-out: Inhibitory activity IC50 on MDA-MB-231
In short: (§1)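 Single-cell suspensions from log-phase cultures, passaged at least 2 generations, are seeded into 96-well plates and given compound in complete medium. Following 72 h, fluorescence with Alamar blue is recorded and fitted for IC50.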

Daudi cells = assay: Cell proliferation experiment, Daudi; details: Daudi cells, read-out: Inhibitory activity IC50 on Daudi
In short: as §1

MV4;11 cells = assay: Cell proliferation experiment (Alamar blue, 72 h), MV4;11; details: read-out: Inhibitory activity IC50 on MV4;11
In short: as §1

PC-3 = assay: Cell proliferation experiment, PC-3; details: read-out: Inhibitory activity IC50 on PC-3
In short: as §1

NCIH82 cells = assay: Cell proliferation experiment, NCI-H82; details: read-out: Inhibitory activity IC50 on NCI-H82
In short: as §1

[1] = Homo sapiens, MDA-MB-231, MDA-MB-231 cells
[2] = Homo sapiens, MV4-11, MV4;11 cells
[3] = Homo sapiens, NCI-H82, NCI-H82 cells

Structure (SMILES)	IC50 (MDA-MB-231 cells; [1]) [nM]	IC50 (Daudi cells; Homo sapiens, Daudi) [nM]	IC50 (MV4;11 cells; [2]) [nM]	IC50 (PC-3; Homo sapiens, PC-3, PC-3 cells) [nM]	IC50 (NCIH82 cells; [3]) [nM]	IC50 (Daudi cells) [nM]	IC50 (PC-3; PC-3 cells) [nM]	IC50 (NCIH82 cells; NCI-H82 cells) [nM]	IC50 (MDA-MB-231 cells; MDA-MB-231 cells) [nM]	IC50 (MV4;11 cells; MV4;11 cells) [nM]
CCNC(=O)C#Cc1ccc2c(c1)NC(=O)/C2=C(\Nc1ccc(CNCCOCCOCCOCCOCCC(=O)Nc2ccc3c(c2)CN(C2CCC(=O)NC2=O)C3=O)cc1)c1ccccc1 (stereo not drawn) [UB-180957]	> 1000	100 to 1000	10 to 100	> 1000	100 to 1000					
CNC(=O)c1ccccc1Nc1nc(Nc2ccc(N3CCN(C(=O)NCCCCOCCCCNCC(=O)Nc4cccc5c4CN(C4CCC(=O)NC4=O)C5=O)CC3)cc2)ncc1Cl (stereo not drawn) [UB-181048]	> 1000	10 to 100	< 10	> 1000	100 to 1000					
CNC(=O)c1ccccc1Nc1nc(Nc2ccc(N3CCN(C(=O)NCCCCOCCCCNCC(=O)Nc4ccc5c(c4)CN(C4CCC(=O)NC4=O)C5=O)CC3)cc2)ncc1Cl (stereo not drawn) [UB-181049]	> 1000	10 to 100	10 to 100	100 to 1000	10 to 100					
CNC(=O)c1ccccc1Nc1nc(Nc2ccc(N3CCN(C(=O)NCCNCCC(=O)Nc4ccc5c(c4)CN(C4CCC(=O)NC4=O)C5=O)CC3)cc2)ncc1Cl (stereo not drawn) [UB-181054]	> 1000	10 to 100	< 10	> 1000	100 to 1000					
CNC(=O)c1ccccc1Nc1nc(Nc2ccc(N3CCN(C(=O)NCCCOCC(O)COCC#Cc4ccc5c(c4)CN(C4CCC(=O)NC4=O)C5=O)CC3)cc2)ncc1Cl (stereo not drawn) [UB-181076]	> 1000	10 to 100	< 10	> 1000	100 to 1000					
CNC(=O)c1ccccc1Nc1nc(Nc2ccc(N3CCN(C(=O)N[C@H]4CC[C@@H](NCCOCCC#Cc5cccc6c5CN(C5CCC(=O)NC5=O)C6=O)CC4)CC3)cc2)ncc1Cl (stereo partly drawn) [UB-181078]	100 to 1000		< 10		100 to 1000	10 to 100	10 to 100			
CNC(=O)c1ccccc1Nc1nc(Nc2ccc(N3CCN(C(=O)N[C@H]4CC[C@@H](NCCOCCC#Cc5ccc6c(c5)CN(C5CCC(=O)NC5=O)C6=O)CC4)CC3)cc2)ncc1Cl (stereo partly drawn) [UB-181080]	100 to 1000	10 to 100	< 10	10 to 100				100 to 1000		
CNC(=O)c1ccccc1Nc1nc(Nc2ccc(N3CCN(C(=O)N[C@H]4CC[C@@H](NCCCC#Cc5cccc6c5CN(C5CCC(=O)NC5=O)C6=O)CC4)CC3)cc2)ncc1Cl (stereo partly drawn) [UB-181100]	100 to 1000	10 to 100	< 10	10 to 100	10 to 100					
CNC(=O)c1ccccc1Nc1nc(Nc2ccc(N3CCN(C(=O)N[C@H]4CC[C@@H](NCCCC#Cc5ccc6c(c5)CN(C5CCC(=O)NC5=O)C6=O)CC4)CC3)cc2)ncc1Cl (stereo partly drawn) [UB-181101]	100 to 1000	10 to 100	< 10	100 to 1000	10 to 100					
CNC(=O)c1ccccc1Nc1nc(Nc2ccc(N3CCN(C(=O)N[C@H]4CC[C@@H](NCCCCOCC(=O)Nc5cccc6c5CN(C5CCC(=O)NC5=O)C6=O)CC4)CC3)cc2)ncc1Cl (stereo partly drawn) [UB-181102]	> 1000	100 to 1000	10 to 100	> 1000	100 to 1000					
CNC(=O)c1ccccc1Nc1nc(Nc2ccc(N3CCN(C(=O)N[C@H]4CC[C@@H](NCCC#Cc5ccc6c(c5)CN(C5CCC(=O)NC5=O)C6=O)CC4)CC3)cc2)ncc1Cl (stereo partly drawn) [UB-181103]	100 to 1000	10 to 100	< 10	10 to 100	10 to 100					
CNC(=O)c1ccccc1Nc1nc(Nc2ccc(N3CCN(C(=O)N[C@H]4CC[C@@H](NCCC#Cc5cccc6c5CN(C5CCC(=O)NC5=O)C6=O)CC4)CC3)cc2)ncc1Cl (stereo partly drawn) [UB-181104]	100 to 1000	10 to 100	< 10	10 to 100	10 to 100					
CNC(=O)c1ccccc1Nc1nc(Nc2ccc(N3CCN(C(=O)N[C@H]4CC[C@@H](NCCOCCC#Cc5ccc6c(c5)CN(C5CCC(=O)NC5=O)C6=O)CC4)CC3)cc2)ncc1Cl (stereo partly drawn) [UB-181115]						10 to 100	10 to 100	10 to 100	100 to 1000	< 10
CNC(=O)c1ccccc1Nc1nc(Nc2ccc(N3CCN(C(=O)N[C@H]4CC[C@@H](NCCOCCC#Cc5cccc6c5CN(C5CCC(=O)NC5=O)C6=O)CC4)CC3)cc2)ncc1Cl (stereo partly drawn) [UB-181121]						100 to 1000	100 to 1000	100 to 1000	100 to 1000	< 10
CNC(=O)c1ccccc1Nc1nc(Nc2ccc(C3CCN(C(=O)N[C@H]4CC[C@@H](NCCOCCC#Cc5ccc6c(c5)CN(C5CCC(=O)NC5=O)C6=O)CC4)CC3)cc2)ncc1Cl (stereo partly drawn) [UB-181122]	100 to 1000	100 to 1000	< 10	100 to 1000	100 to 1000					
CNC(=O)c1ccccc1Nc1nc(Nc2ccc(N3CCN(C(=O)NC4CCC(N[C@H]5CC[C@@H](OCC#Cc6ccc7c(c6)CN(C6CCC(=O)NC6=O)C7=O)CC5)CC4)CC3)cc2)ncc1Cl (stereo partly drawn) [UB-181127]	10 to 100	10 to 100	< 10	10 to 100	10 to 100					
CNC(=O)c1ccccc1Nc1nc(Nc2ccc(N3CCN(C(=O)NC4CCC(NC5CCC(OCC#Cc6ccc7c(c6)CN(C6CCC(=O)NC6=O)C7=O)CC5)CC4)CC3)cc2)ncc1Cl (stereo not drawn) [UB-181131]	> 1000	100 to 1000	10 to 100	> 1000	10 to 100					
CNC(=O)c1ccccc1Nc1nc(Nc2ccc(C3CCN(C(=O)N[C@H]4CC[C@H](NCCC#Cc5ccc6c(c5)CN(C5CCC(=O)NC5=O)C6=O)CC4)CC3)cc2)ncc1Cl (stereo partly drawn) [UB-181137]	100 to 1000	100 to 1000	< 10	10 to 100	100 to 1000					
CNC(=O)c1ccccc1Nc1nc(Nc2ccc(C3CCN(C(=O)N[C@H]4CC[C@H](NCCC#Cc5cccc6c5CN(C5CCC(=O)NC5=O)C6=O)CC4)CC3)cc2)ncc1Cl (stereo partly drawn) [UB-181138]	100 to 1000	100 to 1000	< 10	10 to 100	10 to 100					
CNC(=O)c1ccccc1Nc1nc(Nc2ccc(N3CCN(C(=O)N[C@H]4CC[C@@H](NCCOCCC#Cc5cccc6c5CN(C5CCC(=O)NC5=O)C6=O)CC4)CC3)nc2)ncc1Cl (stereo partly drawn) [UB-181141]	100 to 1000	100 to 1000	< 10	100 to 1000	100 to 1000					
CNC(=O)c1ccccc1Nc1nc(Nc2ccc(N3CCN(C(=O)N[C@H]4CC[C@@H](NCCOCCC#Cc5ccc6c(c5)CN(C5CCC(=O)NC5=O)C6=O)CC4)CC3)nc2)ncc1Cl (stereo partly drawn) [UB-181142]	100 to 1000	100 to 1000	< 10	100 to 1000	100 to 1000					
CNC(=O)c1ccccc1Nc1nc(Nc2ccc(C3CCN(C(=O)N[C@H]4CC[C@@H](NCCC#Cc5ccc6c(c5)CN(C5CCC(=O)NC5=O)C6=O)CC4)CC3)cc2)ncc1Cl (stereo partly drawn) [UB-181168]	100 to 1000	10 to 100	< 10	100 to 1000	100 to 1000					
CNC(=O)c1ccccc1Nc1nc(Nc2ccc(N3CCN(C(=O)N[C@H]4CC[C@@H](NCCC#Cc5ccc6c(c5)CN(C5CCC(=O)NC5=O)C6=O)CC4)CC3)nc2)ncc1Cl (stereo partly drawn) [UB-181169]	> 1000	100 to 1000	10 to 100	10 to 100	100 to 1000					
CC[C@@H]1C(=O)N(C)c2cnc(Nc3ccc(C(=O)N[C@H]4CC[C@@H](NCCOCCC#Cc5cccc6c5CN([C@H]5CCC(=O)NC5=O)C6=O)CC4)cc3)nc2N1C1CCCC1 [UB-181170]	10 to 100	10 to 100	< 10	10 to 100						
CC[C@@H]1C(=O)N(C)c2cnc(Nc3ccc(C(=O)NC4CCN(CCOCCN(C)CC(=O)Nc5cccc6c5CN(C5CCC(=O)NC5=O)C6=O)CC4)nc3)nc2N1C1CCCC1 (stereo partly drawn) [UB-181171]	> 1000	> 1000	10 to 100	> 1000						
CNC(=O)c1ccccc1Nc1nc(Nc2ccc(N3CCN(C(=O)N[C@H]4CC[C@@H](NCCC#Cc5cccc6c5CN(C5CCC(=O)NC5=O)C6=O)CC4)CC3)nc2)ncc1Cl (stereo partly drawn) [UB-181173]	> 1000	> 1000	10 to 100	10 to 100	> 1000					
CC[C@@H]1C(=O)N(C)c2cnc(Nc3ccc(C(=O)N[C@H]4CC[C@@H](N(C)CCOCCC#Cc5cccc6c5CN(C5CCC(=O)NC5=O)C6=O)CC4)cc3)nc2N1C1CCCC1 (stereo partly drawn) [UB-181175]	10 to 100	10 to 100	< 10	10 to 100						
CC[C@@H]1C(=O)N(C)c2cnc(Nc3ccc(C(=O)N[C@H]4CC[C@H](N(C)CCOCCC#Cc5cccc6c5CN(C5CCC(=O)NC5=O)C6=O)CC4)cc3)nc2N1C1CCCC1 (stereo partly drawn) [UB-181176]	10 to 100	10 to 100	< 10	10 to 100						
CC[C@@H]1C(=O)N(C)c2cnc(Nc3ccc(C(=O)N[C@H]4CC[C@@H](N(C)CCOCCC#Cc5cccc6c5CN(C5CCC(=O)NC5=O)C6=O)CC4)cc3OC)nc2N1C1CCCC1 (stereo partly drawn) [UB-181177]	< 10	10 to 100	< 10	< 10						
CC[C@@H]1C(=O)N(C)c2cnc(Nc3ccc(C(=O)N[C@H]4CC[C@H](N(C)CCOCCC#Cc5cccc6c5CN(C5CCC(=O)NC5=O)C6=O)CC4)cc3OC)nc2N1C1CCCC1 (stereo partly drawn) [UB-181178]	10 to 100	< 10	< 10	10 to 100						

— patent US20230210999A1, “TARGETED PROTEASE DEGRADATION (TED) PLATFORM” (EUBULUS BIOTHERAPEUTICS INC., priority 2020, published 2023)
